In paper PMC8344021, “Discovery of Small Molecule Bak Activator for Lung Cancer Therapy” (Theranostics, 2021):

Tested on: H1299, H460 and A549 cells
Assay: Sulforhodamine B (SRB) cytotoxicity screening
Type: cell-based, human
Settings: SRB assay
Text: The BH3 death domain is known to be required for the proapoptotic function of Bak. We chose the BH3 domain binding pocket (aa75-88) of Bak (PDB ID: 2YV6) as a docking site for screening of small molecules using the UCSF DOCK 6.1 program suite and the NCI chemical library (300,000 small molecule) database as we recently described, [20], [29], [34]. Small molecules were ranked according to their energy scores. The top 500 compounds determined to have the highest affinity for the BH3 domain were obtained from the NCI and tested for cytotoxicity in human lung cancer cells (i.e. H1299, H460 and A549 cells) by sulforhodamine B (SRB) assay for further screening as described, [36]. […] We named this lead compound Bak activator BKA-073 (C19H24ClN3O2, MW: 361.87) (Figure 1A). To test the effect of BKA-073 on mitochondrial priming (∆% priming) and apoptotic cell death, human lung cancer A549 cells were treated with increasing concentrations (0, 0.25, 0.5, 0.75, 1.0 µM) of BKA-073, followed by analysis of dynamic BH3 profiling (DBP) at 16h and apoptotic cell death at 72h as described, [37]. […] In addition to lung cancer cell lines, we evaluated the efficacy of BKA-073 in other types of cancer cell lines, including breast cancer (MDA-MB-231 and MCF7), colon cancer (HCT-116), lymphoma (Ramos), multiple myeloma (OPM-1), pancreatic cancer (PANC-1) and osteosarcoma (U2OS) cell lines. […]

Structure (SMILES): COc1ccc2nc3ccccc3c(NCCNCC(C)O)c2c1 (stereo not shown) [BKA-073]
- cytotoxicity among top 500 docking hits: most potent activity
